≈ marks a conversion by molar mass, not a printed value. Where “and” joins values, the source holds several entries; their conditions need not be identical. Identical values can stand only once.
Columns and labels:
[1] = test system: C. neoformans var. grubii H99 ATCC 208821; assay: Antifungal MIC assay, C. neoformans; assay type: cell-based, Cryptococcus neoformans; conditions: 35 °C, 36 h, resazurin, growth inhibited ≥ 80%, range tested 0.25 to 32 μg/mL; for Minimum inhibitory concentration (MIC) C. neoformans ATCC 208821: YNB, n = 2
Procedure: Screening against bacteria and yeasts for antimicrobial activity and toxicity against mammalian cells was performed in duplicate (n = 2). […] Becton Dickinson 242720) agar at 30 °C. A yeast suspension of 1 × 10^6 to 5 × 10^6 CFU/mL (as determined by OD530) was prepared from five colonies form the agar plates, and subsequently diluted with Yeast Nitrogen Base media (YNB; Becton Dickinson 233520), and added to each well of the compound containing plates (384-well plates, NBS; […] Plates were covered and incubated at 35 °C for 36 h without shaking. […] Fluconazole (Sigma Aldrich, F8929) was used as a positive inhibitor control on each plate for both strains.

[2] = test system: human embryonic kidney cells (HEK293, ATCC CRL-1573); assay: Cytotoxicity assay (resazurin); assay type: cell-based; conditions: HEK293, 20 h incubation
Procedure: Screening against bacteria and yeasts for antimicrobial activity and toxicity against mammalian cells was performed in duplicate (n = 2). […] HEK293 cells were counted manually in a Neubauer hemocytometer and added to compound-containing plates (384-well plates, tissue culture treated (TC); Corning CLS3712) giving a final density of 5000 cells/well in a total volume of 50 μL, using Dulbecco's Modified Eagle Medium (DMEM; Life Technologies 11995-073) with 10% Fetal Bovine Serum (FBS; GE SH30084.03). […] Sigma R7017) and after further incubation for 3 h at 37 °C in 5% CO2. Media only was used as negative control and cells without inhibitors as positive growth control. CC50 (concentration at 50% cytotoxicity) values were calculated by curve fitting the inhibition values vs. log(concentration) using a sigmoidal dose-response function, with variable fitting values for bottom, top and slope. Tamoxifen (Sigma Aldrich, Australia T5648) was used as positive inhibitor control on each plate. Selectivity indices (SI) were calculated by dividing the CC50 value (μg/mL) by the MIC value (μg/mL) for a given bacterial or fungal strain.

C. albicans ATCC 90028 = assay: Antifungal MIC assay, C. albicans; assay type: cell-based, Candida albicans; conditions: YNB, 35 °C, 36 h, growth inhibited ≥ 80%; range tested 0.25 to 32 μg/mL; n = 2
Procedure: (§1) All screened compounds were > 95% purity as determined by NMR. Dry compounds were dissolved in dimethyl sulfoxide (DMSO), and serially diluted 2-fold to produce an 8-point dose response with DMSO/water and then added into microtiter plates with a final DMSO concentration of 0.5%, providing a concentration range of 0.25 to 32 μg/mL. Screening against bacteria and yeasts for antimicrobial activity and toxicity against mammalian cells was performed in duplicate (n = 2).
For the fungal assays, yeast strains C. neoformans var. grubii H99 ATCC 208821 and C. albicans ATCC 90028 were cultured for 3 days on Yeast Extract-Peptone Dextrose (YPD; Becton Dickinson 242720) agar at 30 °C. A yeast suspension of 1 × 10^6 to 5 × 10^6 CFU/mL (as determined by OD530) was prepared from five colonies form the agar plates, and subsequently diluted with Yeast Nitrogen Base media (YNB; Becton Dickinson 233520), and added to each well of the compound containing plates (384-well plates, NBS; Corning CLS3640) giving a final cell density of 2.5 × 10^3 CFU/mL and a total volume of 50 μL. Plates were covered and incubated at 35 °C for 36 h without shaking. Growth inhibition of C. albicans was determined measuring absorbance at 630 nm (OD630), while the growth inhibition of C. neoformans was determined measuring the difference in absorbance between 600 and 570 nm (OD600-570), after the addition of resazurin (0.001% final concentration; Sigma R7017) and incubation at 35 °C for 2 h, using media only as negative control and fungi without inhibitors as positive control. MIC values were determined as the lowest concentration at which the growth was inhibited at ≥ 80% (equivalent to no visible growth by eye). Fluconazole (Sigma Aldrich, F8929) was used as a positive inhibitor control on each plate for both strains.

[3] = test system: S. aureus (MRSA) ATCC 43300; assay: Antibacterial MIC assay, S. aureus (MRSA); assay type: cell-based, Staphylococcus aureus; conditions: CAMHB, 18 h, growth inhibited by ≥ 80%, range tested 0.25 to 32 μg/mL, n = 2
Procedure: as §1, with “Dry” for “All screened compounds were > 95% purity as determined by NMR. Dry”
For the bacterial assays, each bacterial strain was cultured in Cation-Adjusted Mueller Hinton Broth (CAMHB; Bacto Laboratories 212322) at 37 °C overnight. Bacterial strains tested were methicillin resistant S. aureus (methicillin-resistant Staphylococcus aureus - MRSA) ATCC 43300, E. coli ATCC 25922, K. pneumoniae K6/ESBL ATCC 700603, P. aeruginosa ATCC 27853, A. baumannii ATCC 19606. A sample of each culture was then diluted 40-fold in fresh CAMHB and incubated at 37 °C for 1.5–3 h. The resultant mid-log phase cultures were diluted with CAMHB (CFU/mL measured by OD600), then added to each well of the compound-containing plates (384-well non-binding surface (NBS) plates; Corning CLS3640), giving a final cell density of 5 × 10^5 CFU/mL and a total volume of 50 μL. Plates were covered and incubated at 37 °C for 18 h without shaking. Inhibition of bacterial growth was determined by measuring absorbance at 600 nm (OD600), using media only as negative control and bacteria without inhibitors as positive control. MIC values were determined as the lowest concentration at which the growth was inhibited by ≥ 80% (equivalent to no visible growth by eye). Colistin sulfate (Sigma Aldrich, Castle Hill, Australia C4461) and vancomycin HCl (Sigma Aldrich, 861987) were used as positive inhibitor controls on each plate for Gram-negative and Gram-positive bacteria, respectively.

[4] = test system: human red blood cells (HRBC); assay: Haemolysis assay; assay type: cell-based; conditions: 1 h at 37 °C
Procedure: as §1
Hemolytic activity was assessed against human red blood cells (HRBC), with data presented as HC10, corresponding to the concentration of the compound causing 10% hemolysis. Human whole blood (Australian Red Cross) was washed three times with 3 volumes of 0.9% NaCl and resuspended in a concentration of 0.5 × 10^8 cells/mL, determined by manual cell count in a Neubauer hemocytometer. Washed cells were added to compound containing plates (384-well polypropylene plates (PP); Corning 3657) for a final volume of 50 μL. The plate was shaken with incubation for 1 h at 37 °C. After incubation, the plates were centrifuged at 1000× g for 10 min to pellet cells and debris. Supernatant (25 μL) was then transferred to reading plates (384-well, polystyrene plated (PS), Corning CLS3680), with hemolysis determined by measuring the supernatant absorbance at […] (OD405), using cells without inhibitors as negative control and cells with 1% Triton X-100 (Sigma T8787) as positive control. HC10 and HC50 (concentration at 10% and 50% hemolysis, respectively) were calculated by curve fitting the inhibition values vs. log(concentration) using a sigmoidal dose-response function with variable fitting values for top, bottom and slope. Melittin (Sigma M2272) was used as positive hemolytic control on each plate. Human blood was sourced from the Australian Red Cross Blood Service. Selectivity indices (SI) were calculated by dividing the HC10 value (μg/mL) by the MIC value (μg/mL) for a given bacterial or fungal strain.

Row | Structure (SMILES) | Minimum inhibitory concentration (MIC) C. neoformans ATCC 208821 [1] | CC50 (concentration of 50% cytotoxicity) [2] | Minimum inhibitory concentration (MIC) C. albicans ATCC 90028 (C. albicans ATCC 90028) | Minimum inhibitory concentration (MIC) S. aureus ATCC 43300 [3] | HC10 (concentration of 10% haemolysis) [4] | MIC ([1]; Cryptococcus neoformans, ATCC208821, YNB, n = 2, read-out: Minimum inhibitory concentration (MIC) C. neoformans ATCC 208821)
1 | CC1(C)[C@@H]2C[C@H]1[C@@](C)(O)[C@H](NCCN[C@@H]1C[C@H]3C[C@H](C3(C)C)[C@@]1(C)O)C2.[Cl][Pd][Cl] [Compound 10] | 4 µg/mL | >32 µg/mL | 4 µg/mL | >32 µg/mL |  | 
2 | CN(C)CCN=CC1=CCC2CC1C2(C)C.[Cl][Pd][Cl] (centres unmarked) [Compound 11] |  | 10.8 µg/mL |  | >32 µg/mL |  | 
3 | CC12CCC(CC1=NCCN=Cc1ccccc1[O][Pd][Cl])C2(C)C (centres unmarked) [Compound 7] | 4—16 μg/mL and 4 μg/mL | >32 µg/mL |  | >32 µg/mL |  | 
4 | CC(C)(C)c1cc(C=NCCN=C2C[C@H]3C[C@H](C3(C)C)[C@@]2(C)O)c([O][Pd][Cl])c(C(C)(C)C)c1 [Compound 6] | 4—16 μg/mL and 4 μg/mL | 4.5 µg/mL | 4—16 μg/mL and 8 μg/mL | 8 µg/mL |  | 
5 | CN(C)CCN=C1C[C@H]2C[C@H](C2(C)C)[C@@]1(C)O.[Cl][Pd][Cl] [Compound 9] | 2—4 μg/mL and 2 μg/mL | >32 µg/mL | 8—16 μg/mL and 16 μg/mL | >32 µg/mL |  | 
6 | CC[C@H](C)[C@H](NC(=O)CN)C(=O)NCC(=O)N[C@@H](C)C(=O)N[C@H](C(=O)N[C@@H](CC(C)C)C(=O)N[C@@H](CCCCN)C(=O)N[C@H](C(=O)N[C@@H](CC(C)C)C(=O)N[C@H](C(=O)N[C@H](C(=O)NCC(=O)N[C@@H](CC(C)C)C(=O)N1CCC[C@H]1C(=O)N[C@@H](C)C(=O)N[C@@H](CC(C)C)C(=O)N[C@H](C(=O)N[C@@H](CO)C(=O)N[C@@H](Cc1c[nH]c2ccccc12)C(=O)N[C@H](C(=O)N[C@@H](CCCCN)C(=O)N[C@@H](CCCNC(=N)N)C(=O)N[C@@H](CCCCN)C(=O)N[C@@H](CCCNC(=N)N)C(=O)N[C@@H](CCC(N)=O)C(=O)N[C@@H](CCC(N)=O)C(N)=O)[C@@H](C)CC)[C@@H](C)CC)[C@@H](C)O)[C@@H](C)O)C(C)C)C(C)C [melittin, Melittin, reference compound] |  |  |  |  | 2.7 µg/mL | 
7 | CC12CCC(C(=NC(c3ccccc3)c3cccc[c]3[Pd][Cl])C1=O)C2(C)C.CC12CCC(C(=NC(c3ccccc3)c3cccc[c]3[Pd][Cl])C1=O)C2(C)C (centres unmarked) [Compound 3] | 0.5 µg/mL | 6.0 µg/mL | 2 µg/mL | 16 µg/mL |  | 
8 | OC(Cn1cncn1)(Cn1cncn1)c1ccc(F)cc1F [fluconazole, Fluconazole, reference compound] |  |  |  |  |  | 8 µg/mL (≈ 26.1 µM)
9 | C[C@H](N=C1C[C@H]2C[C@H](C2(C)C)[C@@]1(C)O)c1cccc[c]1[Pd][Cl].C[C@H](N=C1C[C@H]2C[C@H](C2(C)C)[C@@]1(C)O)c1cccc[c]1[Pd][Cl] [Compound 1] | 0.5 µg/mL | 11.9 µg/mL | 1 µg/mL | 4 µg/mL | 3.9 µg/mL | 
10 | CC1(C)[C@H]2CC(=NCCN)[C@](C)(O)[C@@H]1C2.[Cl][Pd][Cl] [Compound 8] | 2—4 μg/mL and 4 μg/mL | >32 µg/mL | 8—16 μg/mL and 8 μg/mL | >32 µg/mL |  | 
11 | C[C@H](N[C@@H]1C[C@H]2C[C@H](C2(C)C)[C@@]1(C)O)c1cccc[c]1[Pd][Cl].C[C@H](N[C@@H]1C[C@H]2C[C@H](C2(C)C)[C@@]1(C)O)c1cccc[c]1[Pd][Cl] [Compound 4] |  | 16.6 µg/mL |  | 32 µg/mL |  | 
12 | C[C@H](N[C@@H]1C[C@H]2C[C@H](C2(C)C)[C@@]1(C)O)c1cccc[c]1[Pd]([Cl])[P](c1ccccc1)(c1ccccc1)c1ccccc1 [Compound 5, (+)-trans-Chloro{(1R,2R,3R,5R)-3-((S)-1′-phenylethylamino)-2,6,6-trimethylbicyclo[3.1.1]heptane-2-ol-C,N}(triphenylphosphine)palladium(II)] | 1 µg/mL | 2.9 µg/mL | 2 µg/mL | 16 µg/mL | 5.6 µg/mL | 
13 | CN(C)CCNCC1=CCC2CC1C2(C)C.[Cl][Pd][Cl] (centres unmarked) [Compound 12] |  | >32 µg/mL | 2 µg/mL |  |  | 

From article PMC7277541, “Antimicrobial and Antifungal Activities of Terpene-Derived Palladium Complexes” (Antibiotics, 2020)
